Measured values published in EP0517126A1, “Use of diacetyl-splenopentin in chemotherapy and radiation therapy” (WOGEPHARM GmbH, priority 1991, dated 1992).
No end group written: not given here.

Assays:
Assay type in all cases: in vivo, BALB/c-Mäuse
Knochenmarkstammzellen [1] = experiment: Agar colony test (CFU test) of bone marrow stem cells after dexamethasone treatment, followed by DA-SP5; conditions: after Dexamethason 150 mg/kg i.p. days +1 to +5, DA-SP5 10 µg i.p. three times weekly, normal value 121 ± 23
Text: (§1) Es wurde gefunden, daß als Folge einer Therapie mit Zytostatika bzw. durch eine Bestrahlungstherapie sich im Blut der entsprechend behandelten Patienten die Zahl immunologischer Abwehrzellen vermindert. Dies resultiert, weil durch die o. g. Therapie auch die Stammzellen des Knochenmarks (aus diesen entstehen die immunologischen Abwehrzellen) zytotoxisch geschädigt werden. Die Substanz DA-SP5 erhöht die Nachbildung von immunologischen Abwehrzellen aus Stammzellen des Knochenmarks (W. DIEZEL et al. (1989): DD-PS 268160 Al). Es hat sich gezeigt, daß DA-SP5 direkt die Proliferation unreifer Stammzellen des Knochenmarks beschleunigen kann bzw. die Wirkung des Kolonien-stimulierrenden Faktors GM-CSF synergistisch erhöht. Überraschenderweise wurde jetzt festgestellt, daß als Folge dieser Wirkung die zytotoxische Schädigung von Knochenmarkstammzellen (und damit die verminderte Entstehung immunologischer Abwehrzellen) durch Chemotherapeutika bzw. infolge Bestrahlung der Zellen, kompensiert werden kann. Die erfindungsgemäße Wirkung wurde dadurch festgestellt, indem BALB/c-Mäuse hochdosiert mit zytotoxischen (Zellproliferations-hemmenden) Therapeutika systemisch behandelt wurden. Anschließend erfolgte eine Therapie mit DA-SP5 bzw. es wurde lediglich 0,9%ige NaCl-Lösung (Kontrallgruppe) appliziert. Während dieser Therapie wurde untersucht, ob die DE-SP5-behandelten Tiere zeitlich eher befähigt wurden "Knochenmarkstammzell-Kolonien" entsprechend der Norm zu bilden. Eine diesbezüglich schnellere Bildung korreliert mit einer schnelleren Entstehung entsprechender immunologischer Abwehrzellen im Blut. In einer weiteren Versuchsserie wurden BALB/c-Mäuse subletal bestrahlt, und anschließend ebenfalls mit oder ohne DA-SP5 behandelt. Auch bei diesen Tieren wurde untersucht, ob sie zeitlich eher befähigt waren, "Knochenmarkzell-Kolonien" entsprechend der Norm zu bilden. Das erfindungsgemäß verwendete Mittel wurde in Mengen von 0,05mg bis 1,0 mg pro kg Körpergewicht verabreicht. […]

Knochenmarkstammzellen [2] = experiment: Agar colony test (CFU test) of bone marrow stem cells after methotrexate treatment, followed by DA-SP5; conditions: after Methotrexat 175 mg/kg days +1 to +5, DA-SP5 10 µg i.p. three times weekly, normal value 121 ± 23
Text: as §1

Knochenmarkstammzellen [3] = experiment: Agar colony test (CFU test) of bone marrow stem cells after sublethal X-ray irradiation, followed by DA-SP5; conditions: after single X-ray irradiation, DA-SP5 10 µg i.p. three times weekly, normal value 121 ± 23
Text: as §1

Substance: Ac-RK(Ac)EVY [DA-SP5, (N^α-acetyl-L-arginyl)-(N^ε-acetyl-L-lysyl)-L-glutamyl-L-valyl-L-tyrosin]
- Kolonien pro Femur (x̄ ± s) (Knochenmarkstammzellen [1]; Tag Nr. 10 of DA-SP5 therapy): 10 ± 8
- Kolonien pro Femur (x̄ ± s) (Knochenmarkstammzellen [1]; Tag Nr. 20 of DA-SP5 therapy): 55 ± 21
- Kolonien pro Femur (x̄ ± s) (Knochenmarkstammzellen [1]; Tag Nr. 40 of DA-SP5 therapy): 126 ± 18
- Kolonien pro Femur (x̄ ± s) (Knochenmarkstammzellen [2]; Tag Nr. 10 of DA-SP5 therapy): 9 ± 6
- Kolonien pro Femur (x̄ ± s) (Knochenmarkstammzellen [2]; Tag Nr. 20 of DA-SP5 therapy): 53 ± 24
- Kolonien pro Femur (x̄ ± s) (Knochenmarkstammzellen [2]; Tag Nr. 40 of DA-SP5 therapy): 110 ± 20
- Kolonien pro Femur (x̄ ± s) (Knochenmarkstammzellen [3]; Tag Nr.10 of DA-SP5 therapy): 8 ± 6
- Kolonien pro Femur (x̄ ± s) (Knochenmarkstammzellen [3]; Tag Nr.20 of DA-SP5 therapy): 116 ± 10
- Kolonien pro Femur (x̄ ± s) (Knochenmarkstammzellen [3]; Tag Nr.40 of DA-SP5 therapy): 126 ± 12
